Read-outs that look alike come from different tables or passages of the source.
Legend:
[1] = test system: cortical inhibitory networks; assay: Paired-pulse whisker stimulation (paired-pulse ratio, cortical inhibitory function) in awake mice; assay type: in vivo, mouse; settings: for Paired-pulse ratio (PPR): awake mice
Description: (§1) Recordings were analyzed offline using pClamp 10.2.
Next, it was investigated how cortical ammonia toxicity leads to neurological dysfunction and seizures. […] Neurobiol. […] The whisker stimulation paradigm elicits two successive field excitatory post-synaptic potentials (fEPSP), where the second fEPSP has lower amplitude due to activation of cortical inhibitory networks (quantified by a paired-pulse ratio (PPR)<1).

[2] = 1H-NMR brain amino acid concentrations; assay type: in vivo, mouse; settings: 30 minutes after administration, mean±SEM
Description: ^1H-NMR Spectroscopy—Mice were anesthetized using 1.5% isoflurane and decapitated. Forebrains (whole brain minus cerebellum/brainstem) were quickly extracted, frozen in liquid nitrogen, and homogenized in 7.5 mL 12% PCA at 0° C. using a micro-sonicator. The homogenate was centrifuged at 25,000 G for 15 minutes, and the supernatants were neutralized to pH 7.0 with KOH over an ice bath. A further 15 minute centrifugation (25,000 G) separated the resultant KClO4, and the supernatant was lyophilized before being reconstituted with 0.65 ml D2O. ^1H-NMR spectra were acquired using a 600 mHz Varian Unity NOVA spectrometer equipped with a triple-axis gradient HCN probe (standard room temperature). Signals were acquired following a 90° pulse with a spectral width of 7200 Hz and 32K data points. The time between pulses was 15 seconds and 64 signals were averaged for each spectrum. The sample temperature was 25° C. Integrals of the relevant peaks were converted to μmol/gram wet-weight and normalized NAA (methyl) to increase inter-sample consistency.

[3] = test system: pyramidal neurons; assay: Whole-cell voltage clamp with ramp voltage and GABA application in acute cortical slices (EGABA); assay type: cell-based, mouse
Description: (§3) Electrophysiological Recordings—In vivo recordings were obtained from layer II somatosensory cortex. In situ recordings were obtained from layer II in coronal cortical slices prepared from P21-30 mice. ISMs of K^+ and NH4^+ were pulled from double-barreled pipette glass (PB150-6, WPI) with a tip of 1-3 μm. The pipettes were silanized (coated) with dimethylsilane I (Fluka, Sigma) and filled with either K^+ ionophore I cocktail B (Fluka, selectivity coefficient −1.8 log(K^+/NH4^+)) or NH4+ ionophore I cocktail B (Fluka, −0.9 log(NH4^+/K^+)). […] Ion-sensitive microelectrode (ISM) signals were amplified (FD223a by WPI), externally filtered and digitized as above, and reference field potential traces were subtracted. […] Recordings were analyzed offline using pClamp 10.2.
(§4) In Situ Electrophysiology—Coronal cortical slices were prepared from P21-30 mice, as described previously. […] All experiments were performed at 32-35° C. […] Whole-cell patch-clamp recordings were done using electrodes with 3-5 M106 resistance, and an intracellular solution containing 135 mM K-methylsulfate, 10 mM KCl, 10 mM hepes, 5 mM NaCl, 2.5 mM Mg-ATP, 0.3 mM Na-GTP (pH 7.3), containing Alexa Fluor® 350 (Invitrogen). Signals were low-pass filtered at 2 kHz and digitized at 10 kHz using Axopatch MultiClamp 700A and Digidata 1320A (Axon Instruments).

[4] = test system: Na^+—K^+-ATPase (NKA)
Description: Cell Culture Assays—Cultured neocortical astrocytes were prepared from P1-2 mouse and rat pups as previously described. Wang et al., “Astrocytes Modulate Neural Network Activity by Ca(2)(+)-Dependent Uptake of Extracellular K(+),” Science Signaling 5:ra26 (2012); Lin et al., “Gap-Junction-Mediated Propagation and Amplification of Cell Injury,” Nat. Neurosci. 1:494-500 (1998), which are hereby incorporated by reference in their entirety. For ^86Rb^+ experiments the cultures were incubated for 10 minutes±ouabain (1 mM). The potassium analogue ^86Rb^+ was then added to each well plate for 15 minutes (1 μCi, Perkin Elmer). The reaction was stopped by placing the cells on ice and washed with ice-cold aCSF. The cells were lysed and ^86Rb^+ uptake quantified by liquid scintillation counting (Beckman Coulter). For Na^+—K^+-ATPase activity, astrocyte cultures were utilized as previously described, and enzyme activity was quantified using the malachite green reaction (Sigma) and analyzed using spectrophotometry. Anupama et al. “Comparison of Na—K ATPase Activity in Rat Brain Synaptosome Under Various Conditions,” Neurochem. Int. 33:283-286 (1998), which is hereby incorporated by reference in its entirety.

[5] = test system: astrocytes; settings: n = 52 cells, mean±SEM; for Astrocyte calcium transient Freq.: awake Otc^spf-ash mice, 100 μm below pial surface
Text: Body temperature was maintained with a heating pad.
Two-Photon Laser Scanning Microscopy (2PLSM)—A Mai Tai laser (SpectraPhysics) attached to a confocal scanning system (Fluoview 300, Olympus) and an upright microscope (IX51W) was used. Briefly, volume changes and calcium activity were imaged in cortex 100 μm below the pial surface, as described previously, using a 60× (1.1 NA) and a 20× (0.95 NA) lens, respectively. For in vivo volumetry xyzt image series were collected (z-step 1.5 μm, every 5 minutes) with acquisition time<20 seconds and laser power<40 mW. For in vivo calcium imaging, dual channel (rhod-2 and eGFP) frames were collected at 0.2 or 2 Hz. A low sampling rate and <20 mW laser were used to avoid photo damage. […] Therefore, each animal was tested for optimal loading by performing whisker stimulation, to verify a physiological calcium response. Wang et al., “Astrocytic Ca^2+ Signalling Evoked by Sensory Stimulation In Vivo,” Nat. Neurosci. 9:816-823 (2006), which is hereby incorporated by reference in its entirety. A calcium transient was defined as an event where the relative ratio between the rhod-2 and eGFP signal intensities (ΔF/F0) was >2 standard deviations […] from baseline. Beginning and end were defined as ΔF/F0>0.5 π and <0.5 π respectively. Amplitude was taken as the peak ΔF/F0 in this interval. For in situ volumentric imaging acute cortical slices were loaded with texas red hydrazide (1.5 μM, a fixable sulforhodamine 101 derivative) in aCSF for 50 minutes. Volume and calcium recordings were analyzed using previously described custom-made software (MatLab Inc.).
Data in Table 2 is from analysis of 2PLSM xyt series, where calcium indicator rhod-2 was used to detect astrocyte calcium transients 100 μm below the pial surface. Data are shown as mean±SEM.

[6] = test system: astrocytes; settings: awake Otc^spf-ash mice, ammonia load
Description: Two-Photon Laser Scanning Microscopy (2PLSM)—A Mai Tai laser (SpectraPhysics) attached to a confocal scanning system (Fluoview 300, Olympus) and an upright microscope (IX51W) was used. Briefly, volume changes and calcium activity were imaged in cortex 100 μm below the pial surface, as described previously, using a 60× (1.1 NA) and a 20× (0.95 NA) lens, respectively. For in vivo volumetry xyzt image series were collected (z-step 1.5 μm, every 5 minutes) with acquisition time<20 seconds and laser power<40 mW. For in vivo calcium imaging, dual channel (rhod-2 and eGFP) frames were collected at 0.2 or 2 Hz. A low sampling rate and <20 mW laser were used to avoid photo damage. […] Therefore, each animal was tested for optimal loading by performing whisker stimulation, to verify a physiological calcium response. Wang et al., “Astrocytic Ca^2+ Signalling Evoked by Sensory Stimulation In Vivo,” Nat. Neurosci. 9:816-823 (2006), which is hereby incorporated by reference in its entirety. A calcium transient was defined as an event where the relative ratio between the rhod-2 and eGFP signal intensities (ΔF/F0) was >2 standard deviations […] from baseline. Beginning and end were defined as ΔF/F0>0.5 π and <0.5 π respectively. Amplitude was taken as the peak ΔF/F0 in this interval. […] Volume and calcium recordings were analyzed using previously described custom-made software (MatLab Inc.).

[7] = test system: cortical slices; settings: 7 mM ammonia in perfusate
Description: as §3, §4

[8] = Otc^spf-ash mice after 7.5 mmol kg^−1 i.p. ammonia load (baseline 0.32±0.07)
Description: Biochemical and Hemodynamic Analysis—Plasma ammonia analysis was performed on blood samples collected using 50 μL heparinized tubes from the femoral artery. A L-glutamate dehydrogenase based kit (Sigma) was used for the quantification of ammonia in plasma.

[9] = test system: Otc^spf-ash mice; assay: NH4+ and K+ ion-sensitive microelectrode (ISM) recordings from cortex of awake mice; settings: mean±SEM
Description: Body temperature was maintained with a heating pad. For systemic drug treatment, a polyethylene intraperitoneal (i.p.) catheter was surgically implanted to deliver drugs accurately and with minimal manipulation. For cortical drug application artificial cerebrospinal fluid (aCSF) was perfused across the cortex of awake mice at a rate of 2 mL/minute, into a custom-made well with ˜200 μL volume, through tubing with ˜100 μL volume, meaning the entire volume bathing the brain was exchanged approximately every 9 seconds.
Electrophysiological Recordings—In vivo recordings were obtained from layer II somatosensory cortex. […] ISMs of K^+ and NH4^+ were pulled from double-barreled pipette glass (PB150-6, WPI) with a tip of 1-3 μm. The pipettes were silanized (coated) with dimethylsilane I (Fluka, Sigma) and filled with either K^+ ionophore I cocktail B (Fluka, selectivity coefficient −1.8 log(K^+/NH4^+)) or NH4+ ionophore I cocktail B (Fluka, −0.9 log(NH4^+/K^+)). […] Ion-sensitive microelectrode (ISM) signals were amplified (FD223a by WPI), externally filtered and digitized as above, and reference field potential traces were subtracted.
Ion Sensitive Microelectrode (ISM) Fabrication—Ion Sensitive Microelectrodes (ISMs) of K^+ and NH4^+ were pulled from double-barreled pipette glass (PB150-6, WPI) with a tip of 1-3 μm. The pipettes were silanized (coated) with dimethylsilane I (Fluka, Sigma). […] The K^+ ionophore has a selectivity coefficient relative to NH4^+ of −1.8 log (K^+/NH4^+), and the NH4^+ ionophore has a selectivity coefficient relative to K^+ of −0.9 log (NH4^+/K^+). […] The reference barrels were used to record the DC potentials and were filled with 0.15 M NaCl. In selected experiments, single barrel electrodes were also used in combination with single reference electrodes. K^+ and NH4^+ ISM traces were subtracted for interference by calculating the mV response to the increase of the other ion in calibration solutions. All ISMs were calibrated before and after each experiment. […] Calibration data were fitted to the Nikolsky equation to determine electrode slope and interference.

[10] = test system: Otc^spf-ash mice; assay: Automated video analysis of spontaneous mouse movement; assay type: in vivo; settings: Otc^spf-ash mice after systemic NH4Cl load 7.5 mmol kg^−1; bumetanide 30 mg kg^−1 i.p.
Description: Otc^spf-ash mice were crossed with Glt-1-eGFP mice for imaging experiments. C57BL/6J mouse and Wistar rat pups were obtained from Jackson Laboratories. To analyze cognitive abilities in OTC mice, two commercial conditioning chambers (H10-11M-TC, Coulbourn Instruments) were adapted for contextual fear conditioning. Over the course of 4 days, mice were trained via a tone/shock protocol and trained to fear contextual and auditory cues. […] Automated movement analysis was performed using AnyMazeTM software analysis of CCD-camera recordings in a standard mouse cage.

[11] = test system: Otc^spf-ash mice; assay: Sensory-motor phenotype score; assay type: in vivo, mouse; settings: Otc^spf-ash mice after systemic NH4Cl load 7.5 mmol kg^−1; bumetanide 30 mg kg^−1 i.p.
Description: Mouse movement and seizure activity were omitted from this score, because it was desired that these manifestations be independently and more quantitatively represented. The score thus consisted of four elements: hyperacusis (0-2), imbalance (0-3), ataxia/tremor (0-3) and level of consciousness (0-3). A maximum score of 11 represents deep coma (no corneal reflex) whilst 0 represents normal wakefulness. Each animal was scored after the first 5 minutes and then every 15 minutes as they progressed through the stereotypical stages of ammonia neurotoxicity. […] Ataxia/tremor was scored using a gait test, where the mouse was encouraged to walk for a short distance. […] Consciousness was scored as either 0 for awake, 1 loss of scatter reflex, 2 loss of righting reflex (LORR), 3 loss of corneal reflex.

[12] = test system: awake mice; assay: Myoclonic event (ME) frequency on EEG in awake mice; assay type: in vivo, mouse
Description: Electrophysiological Recordings—In vivo recordings were obtained from layer II somatosensory cortex. In situ recordings were obtained from layer II in coronal cortical slices prepared from P21-30 mice. ISMs of K^+ and NH4^+ were pulled from double-barreled pipette glass (PB150-6, WPI) with a tip of 1-3 μm. The pipettes were silanized (coated) with dimethylsilane I (Fluka, Sigma) and filled with either K^+ ionophore I cocktail B (Fluka, selectivity coefficient −1.8 log(K^+/NH4^+)) or NH4+ ionophore I cocktail B (Fluka, −0.9 log(NH4^+/K^+)). […] Electroencephalogram (EEG) signals were externally filtered at 6 Hz (Filter Butterworth Model by Encore, Axopatch 200B by Axon Instruments), band pass filtered at 1-100 Hz and digitized (Digidata 1440A by Axon Instruments). Ion-sensitive microelectrode (ISM) signals were amplified (FD223a by WPI), externally filtered and digitized as above, and reference field potential traces were subtracted. In selected experiments, wireless electromyogram (EMG) and electroencephalogram (EEG) electrodes were implanted (DSI Physiotel®), and an extracellular microelectrode was placed in the thalamus (ventrobasal complex). Recordings were analyzed offline using pClamp 10.2. Myoclonic events (ME) were defined on the EEG as single or multiple 3-9 Hz polyspike and wave discharges (SWD) of 0.2-2 second duration associated with myoclonic jerks determined by video recording, EMG or direct observation.

[13] = test system: NKCC1; settings: NKCC1 knock-out Slc12a2^−/−
Description: as §1
(§2) Because EGABA is heavily dependent on chloride transporters, the diuretic bumetanide was next tested, a highly specific NKCC1 inhibitor used in clinical practice to treat heart failure. Hannaert et al., “Rat NKCC2/NKCC1 Cotransporter Selectivity For Loop Diuretic Drugs,” Naunyn Schmiedebergs Arch. Pharmacol. 365:193-199 (2002); Dzhala et al., “NKCC1 Transporter Facilitates Seizures in the Developing Brain,” Nat. […] To ensure the molecular specificity of bumetanide, gramicidin-perforated patch recordings were also performed in conditional NKCC1 knock-out (Slc12a2^−/−) and wild-type littermates (Slc12a2′^+/+).

[14] = biological target: NKCC1 (Mus musculus, UniProt P55012); settings: wild-type Slc12a2^+/+
Description: as §1, §2

[15] = test system: Otc^spf-ash mice; assay: Survival after ammonia overdose (Cox regression); assay type: in vivo, mouse
Description: Where n≧10 for normally distributed data, the unpaired t test or ANOVA were used for independent samples, and paired t test for paired samples. Where n<10 non-parametric tests including Mann-Whitney U and Kruskall-Wallis were used for independent samples, and Wilcoxon signed ranks test for paired samples. Overdose survival was compared using Cox regression model (controlling for the confounding effect of mouse weight).
To test the validity of the present in situ model, awake animals were tested (FIG. 4A). […] To investigate whether this improvement of neuronal function translated into a clinically relevant improvement in disease phenotype, the phenotype measures outlined in FIGS. 1A-1I were employed.

[16] = during cortical KCl application (12.5 mM) ± bumetanide 5 μM
[17] = Otc^spf-ash mice, ammonia 7.5 mmol kg^−1 i.p.
[18] = after washout of cortical NH4Cl (± bumetanide)
[19] = during cortical NH4Cl application (10 mM) ± bumetanide 5 μM
[20] = cortical superfusion (NH4Cl 10 mM, BUM 5 μM)
[21] = intraperitoneal injection (NH4Cl 7.5 mmol kg^−1, BUM 30 mg kg^−1)
[22] = cortical NH4Cl (10 mM) ± bumetanide
[23] = systemic NH4Cl (7.5 mmol kg^−1) ± bumetanide

Chain of NKCC1 (Mus musculus, UniProt P55012) (P55012 whole entry): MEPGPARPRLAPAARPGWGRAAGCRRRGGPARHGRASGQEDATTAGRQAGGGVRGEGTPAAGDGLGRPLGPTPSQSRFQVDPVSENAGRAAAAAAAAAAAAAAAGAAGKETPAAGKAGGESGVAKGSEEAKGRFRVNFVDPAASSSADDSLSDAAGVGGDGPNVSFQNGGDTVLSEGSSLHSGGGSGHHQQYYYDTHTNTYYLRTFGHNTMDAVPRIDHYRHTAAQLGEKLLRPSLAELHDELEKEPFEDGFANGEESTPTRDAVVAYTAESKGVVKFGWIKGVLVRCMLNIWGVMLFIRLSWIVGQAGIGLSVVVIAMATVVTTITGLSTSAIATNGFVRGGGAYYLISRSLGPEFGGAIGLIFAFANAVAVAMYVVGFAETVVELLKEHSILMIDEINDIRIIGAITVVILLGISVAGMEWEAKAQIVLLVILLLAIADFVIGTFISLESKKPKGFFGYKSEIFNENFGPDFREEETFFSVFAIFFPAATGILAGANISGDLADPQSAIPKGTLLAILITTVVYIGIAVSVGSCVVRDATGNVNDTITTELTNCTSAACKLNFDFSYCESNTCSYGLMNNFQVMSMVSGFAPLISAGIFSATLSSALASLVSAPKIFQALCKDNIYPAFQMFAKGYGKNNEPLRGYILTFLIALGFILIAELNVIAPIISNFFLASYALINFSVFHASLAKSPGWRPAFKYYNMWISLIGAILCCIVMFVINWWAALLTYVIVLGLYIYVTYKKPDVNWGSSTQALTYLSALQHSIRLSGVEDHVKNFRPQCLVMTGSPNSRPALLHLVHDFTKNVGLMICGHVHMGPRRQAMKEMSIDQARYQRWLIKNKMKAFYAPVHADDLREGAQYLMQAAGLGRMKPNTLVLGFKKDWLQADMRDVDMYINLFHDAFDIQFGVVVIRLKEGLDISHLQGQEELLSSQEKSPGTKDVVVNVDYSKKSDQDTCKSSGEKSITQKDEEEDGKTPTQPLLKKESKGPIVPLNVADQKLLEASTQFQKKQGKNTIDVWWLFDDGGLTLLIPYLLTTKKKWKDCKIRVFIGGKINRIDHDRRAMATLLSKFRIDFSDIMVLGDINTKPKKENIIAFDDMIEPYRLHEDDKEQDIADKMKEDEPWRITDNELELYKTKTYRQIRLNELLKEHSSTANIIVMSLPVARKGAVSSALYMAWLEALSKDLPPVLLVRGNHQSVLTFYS

SMILES | Paired-pulse ratio (PPR) [1, 16] | Brain GABA [2, 17] | Brain Glutamate [2, 17] | Brain Glutamine [2, 17] | Brain GABA ([2]; WT mice) | Brain Glutamate ([2]; WT mice) | Brain Glutamine ([2]; WT mice) | Paired-pulse ratio (PPR) after washout [1, 18] | Paired-pulse ratio (PPR) [1, 19] | [NH4^+]o [9, 20] | [NH4^+]o [9, 21] | Δ[K^+]o [9, 21] | Spontaneous mouse movement [10] | Sensory-motor phenotype score (out of 11) [11] | ME frequency [12, 22] | ME frequency [12, 23] | other results
[Cl-].[K+] [KCl] | 1.48±0.22 |  |  |  |  |  |  |  |  |  |  |  |  |  |  |  | Paired-pulse ratio (PPR) after washout ([1]; after washout of cortical KCl): 0.63±0.14
N [NH4Cl] |  | 2.46 ± 0.13 μmol g^−1 wet weight | 13.24 ± 0.33 μmol g^−1 wet weight | 9.25 ± 0.34 μmol g^−1 wet weight | 2.19 ± 0.12 μmol g^−1 wet weight | 12.49 ± 0.15 μmol g^−1 wet weight | 8.69 ± 0.33 μmol g^−1 wet weight | 0.61±0.15 | 1.56±0.24 | 5.82 ± 0.18 mM | 4.83 ± 0.52 mM | 1.93 ± 0.19 mM | 0.42±0.22 m min^−1 | 9.00±0.46 | 1.02±0.07 ME min^−1 | 2.66±0.14 ME min^−1 | Depolarization of EGABA ([3]; ammonia 7 mM in perfusate, pyramidal neurons, ramp voltage 0 to −120 mV): +12.33±3.66 mV; NKA activity with NH4Cl substituted for KCl ([4]; NH4Cl 15 mM, cell-free): able to maintain normal NKA activity; NKA-dependent (ouabain-sensitive) 86Rb^+ uptake ([4]; ammonia 0.5-10 mM, cultured astrocytes): dose-dependent reduction; Astrocyte calcium transient Freq. [5]: 9.03 ± 1.16 Hz cell^−1 × 10^−3; Astrocyte calcium transient Freq. ([5]; listed as ammonia): 9.03±1.16 Hz cell^−1 × 10^−3; Astrocyte calcium Cell-cell correlation ([5]; awake mice): 0.26 ± 0.08; Astrocyte calcium transient Amplitude (ΔF/F0) ([5]; awake mice): 0.47 ± 0.32; Astrocyte calcium transient Duration ([5]; awake mice): 21.51 ± 4.55 s; Astrocyte calcium Cell-cell correlation ([5]; awake mice, listed as ammonia): 0.26±0.08; Astrocyte swelling [6]: no significant astrocyte swelling; Transient astrocyte shrinkage [6]: 5.04±0.85%; Increase in [K^+]o [7]: 1.88 ± 0.13 mM; Increase in [NH4^+]o [7]: 3.67 ± 0.53 mM; Extracellular ammonia concentration in plasma [8]: 4.21 ± 0.59 mM; Δ[K^+]o ([9]; intraperitoneal injection (NH4Cl 7.5 mmol kg^−1, BUM 30 mg kg^−1), listed as ammonia): 1.93 ± 0.19 mM; Depolarizing effect on EGABA [13]: +1.00±1.07; Depolarizing effect on EGABA [14]: +11.14±1.22
CCCCNc1cc(C(=O)O)cc(S(N)(=O)=O)c1Oc1ccccc1 [bumetanide] | 0.92±0.18 | 2.39 ± 0.13 μmol g^−1 wet weight | 14.27 ± 0.23 μmol g^−1 wet weight | 8.70 ± 1.54 μmol g^−1 wet weight | 2.55 ± 0.05 μmol g^−1 wet weight | 14.38 ± 0.22 μmol g^−1 wet weight | 4.52 ± 0.18 μmol g^−1 wet weight | 0.59±0.17 | 0.88±0.15 | 0.52 ± 0.11 mM | 0.42 ± 0.16 mM | 0.0073 ± 0.015 mM | 3.17±0.46 m min^−1 | 6.00±0.72 | 0.10±0.02 ME min^−1 | 0.32±0.02 ME min^−1 | Effect on ammonia-induced depolarization of EGABA ([3]; bumetanide 5 μM pre-incubation): successfully prevented; Survival after ammonia overdose increased by a factor ([15]; NH4Cl overdose 10 mmol kg^−1, Otc^spf-ash mice): 3.87; Hazard rate ratio ([15]; NH4Cl overdose 10 mmol kg^−1, 95% confidence interval 0.08 to 0.87): 0.26
